Read-outs that look alike come from different tables or passages of the source. Numbered stars: 1 amine (or outer) side, 2 acyl side, 3 side chain; on linkers, the order of the positions; unused ones are H or OH. Square brackets hold non-standard residues; d marks the D form. Side chains are listed from the residue outwards. Peptide text beside a SMILES is read from it. * marks the point of attachment. X1 = O=C(CSCC(=O)*)NCCN1C(=O)c2ccccc2C1=O; γGlu = O=C(O)[C@H](CCC(=O)[*:2])N[*:1]; X2 = O=C(CSCC(=O)*)NCCN1C(=O)CSC1=O; Palmitoyl = CCCCCCCCCCCCCCCC(=O)*; Aib = CC(C)(N)C(=O)O
Key:
GLP-1R = GLP-1R (Homo sapiens, UniProt P43220); assay: HitHunter cAMP assay (GLP-1R); type: cell-based; details: for Emax: read-out: (Emax) GLP-1R
GLP-1R, sequence (P43220 24-463): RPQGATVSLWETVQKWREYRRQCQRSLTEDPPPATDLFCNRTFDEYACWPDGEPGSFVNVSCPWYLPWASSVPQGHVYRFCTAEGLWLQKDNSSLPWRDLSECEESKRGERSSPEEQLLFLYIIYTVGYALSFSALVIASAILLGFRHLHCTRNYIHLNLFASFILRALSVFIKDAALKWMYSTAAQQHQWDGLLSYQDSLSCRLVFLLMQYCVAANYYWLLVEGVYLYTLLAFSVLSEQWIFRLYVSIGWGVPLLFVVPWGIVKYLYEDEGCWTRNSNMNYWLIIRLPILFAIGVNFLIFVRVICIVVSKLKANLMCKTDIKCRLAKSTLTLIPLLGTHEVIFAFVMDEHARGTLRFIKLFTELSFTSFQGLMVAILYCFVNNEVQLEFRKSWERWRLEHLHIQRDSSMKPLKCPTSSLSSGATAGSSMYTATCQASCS
In short: (§1)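 Cells were resuspended in HBSS plus HEPES, IBMX (625 μM) and BSA, then dispensed with antibody at 10,000 per well. Agonists followed as 22-point twofold series, 30 min at room temperature. Antibody reagent and detection steps ran 1 h and overnight in the dark before luminescence.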

GIP-R = molecular target: T1, GIP-R (Homo sapiens, UniProt P48546); assay: HitHunter cAMP assay (GIP-R); type: cell-based; details: for Emax: read-out: (Emax) GIP-R
T1 sequence (P48546 22-466): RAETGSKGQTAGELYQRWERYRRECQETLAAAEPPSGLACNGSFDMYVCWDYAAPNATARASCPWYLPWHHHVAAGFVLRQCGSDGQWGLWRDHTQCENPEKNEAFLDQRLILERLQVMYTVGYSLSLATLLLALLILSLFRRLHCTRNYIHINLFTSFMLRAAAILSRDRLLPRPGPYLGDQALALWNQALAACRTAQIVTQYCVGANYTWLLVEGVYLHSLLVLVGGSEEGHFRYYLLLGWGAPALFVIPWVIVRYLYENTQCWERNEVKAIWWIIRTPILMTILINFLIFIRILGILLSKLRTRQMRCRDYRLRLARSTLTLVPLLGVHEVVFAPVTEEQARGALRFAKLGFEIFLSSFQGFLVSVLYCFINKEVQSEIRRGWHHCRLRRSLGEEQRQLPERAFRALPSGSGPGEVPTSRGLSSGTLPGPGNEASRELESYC
In short: as §1

[1] = read-out: EC50 GIP-R/nM, Table 3A, cAMP
[2] = Table 3A, cAMP, read-out: EC50 GLP-1R/nM
[3] = Table 3A, cAMP, read-out: EC50 GIP-R/nM
[4] = read-out: EC50 GLP-1R/nM, Table 3A, cAMP

Row | SMILES | EC50 (GLP-1R; EC50 GLP-1R/nM, Table 3, cAMP) [nM] | EC50 (GLP-1R; EC50 GLP-1R/nM, Table 3A, cAMP) [nM] | Emax (GLP-1R; Table 3, cAMP) [%] | Emax (GLP-1R; Table 3A, cAMP) [%] | Emax (GIP-R; Table 3A, cAMP) [%] | EC50 (GIP-R; [1]) [nM] | EC50 (GLP-1R; [2]) [nM] | EC50 (GIP-R; [3]) [nM] | EC50 (GLP-1R; [4]) [nM] | EC50 (GIP-R; EC50 GIP-R/nM, Table 3, cAMP) [nM] | EC50 (GIP-R; EC50 GIP-R/nM, Table 3A, cAMP) [nM] | Emax (GIP-R; Table 3, cAMP) [%] | also measured
1 | CC[C@H](C)[C@H](NC(=O)[C@H](CO)NC(=O)[C@H](Cc1ccc(O)cc1)NC(=O)[C@H](CC(=O)O)NC(=O)[C@H](CO)NC(=O)[C@@H](NC(=O)[C@H](Cc1ccccc1)NC(=O)[C@@H](NC(=O)CNC(=O)[C@H](CCC(=O)O)NC(=O)CSCC(=O)NCCN1C(=O)c2ccccc2C1=O)[C@@H](C)O)[C@@H](C)O)C(=O)N[C@@H](Cc1ccc(O)cc1)C(=O)N[C@@H](CC(C)C)C(=O)N[C@@H](CC(=O)O)C(=O)N[C@@H](CCC(=O)O)C(=O)N[C@@H](CCC(N)=O)C(=O)N[C@@H](C)C(=O)N[C@@H](C)C(=O)NC(C)(C)C(=O)N[C@@H](CCC(=O)O)C(=O)N[C@@H](Cc1ccccc1)C(=O)N[C@H](C(=O)N[C@@H](CC(N)=O)C(=O)N[C@@H](Cc1c[nH]c2ccccc12)C(=O)N[C@@H](CC(C)C)C(=O)N[C@@H](CC(C)C)C(=O)N[C@@H](C)C(=O)NCC(=O)NCC(=O)N1CCC[C@H]1C(=O)N[C@@H](CO)C(=O)N[C@@H](CO)C(=O)NCC(=O)N[C@@H](C)C(=O)N1CCC[C@H]1C(=O)N1CCC[C@H]1C(=O)N1CCC[C@H]1C(=O)N[C@@H](CO)C(=O)N[C@@H](CCCCN)C(N)=O)C(C)C [Compound 150] (X1-EGTFTSDYSIYLDEQAA[Aib]EFVNWLLAGGPSSGAPPPSK-NH2) | 1 to 10 | 1 to 10 | 95 to 113 | 95 to 113 | 118 to 130 | < 1 | – | – | – | – | – | – | EC50 (GIP-R; read-out: EC50 GIP-R/nM, Table 3, cAMP): < 1 nM
2 | CC[C@H](C)[C@H](NC(=O)[C@H](CO)NC(=O)[C@H](Cc1ccc(O)cc1)NC(=O)[C@H](CC(=O)O)NC(=O)[C@H](CO)NC(=O)[C@@H](NC(=O)[C@H](Cc1ccccc1)NC(=O)[C@@H](NC(=O)CNC(=O)[C@H](CCC(=O)O)NC(=O)CS(=O)(=O)CC(=O)NCCN1C(=O)CSC1=O)[C@@H](C)O)[C@@H](C)O)C(=O)N[C@@H](Cc1ccc(O)cc1)C(=O)N[C@@H](CC(C)C)C(=O)N[C@@H](CC(=O)O)C(=O)N[C@@H](CCCCN)C(=O)N[C@@H](CCC(N)=O)C(=O)N[C@@H](C)C(=O)N[C@@H](C)C(=O)NC(C)(C)C(=O)N[C@@H](CCC(=O)O)C(=O)N[C@@H](Cc1ccccc1)C(=O)N[C@H](C(=O)N[C@@H](CC(N)=O)C(=O)N[C@@H](Cc1c[nH]c2ccccc12)C(=O)N[C@@H](CC(C)C)C(=O)N[C@@H](CC(C)C)C(=O)N[C@@H](C)C(=O)NCC(=O)NCC(=O)N1CCC[C@H]1C(=O)N[C@@H](CO)C(=O)N[C@@H](CO)C(=O)NCC(=O)N[C@@H](C)C(=O)N1CCC[C@H]1C(=O)N1CCC[C@H]1C(=O)N1CCC[C@H]1C(=O)N[C@@H](CO)C(=O)N[C@@H](CCCCN)C(N)=O)C(C)C [Compound 168] | – | – | 92 | 92 | – | – | 1 to 10 | > 1000 | – | – | – | – | EC50 (GLP-1R; Table 3, cAMP, read-out: EC50 GLP-1R/nM): 1 to 10 nM; EC50 (GIP-R; Table 3, cAMP, read-out: EC50 GIP-R/nM): > 1000 nM; Emax at 1 µM (GIP-R; read-out: (Emax) GIP-R at 1 μM, Table 3, cAMP, at 1 μM): 6 to 14%
3 | CC[C@H](C)[C@H](NC(=O)[C@H](CO)NC(=O)[C@H](Cc1ccc(O)cc1)NC(=O)[C@H](CC(=O)O)NC(=O)[C@H](CO)NC(=O)[C@@H](NC(=O)[C@H](Cc1ccccc1)NC(=O)[C@@H](NC(=O)CNC(=O)[C@H](CCC(=O)O)NC(=O)CSCC(=O)NCCN(C)C(=O)c1ccccc1)[C@@H](C)O)[C@@H](C)O)C(=O)N[C@@H](Cc1ccc(O)cc1)C(=O)N[C@@H](CC(C)C)C(=O)N[C@@H](CC(=O)O)C(=O)N[C@@H](CCCCN)C(=O)N[C@@H](CCC(N)=O)C(=O)N[C@@H](C)C(=O)N[C@@H](C)C(=O)NC(C)(C)C(=O)N[C@@H](CCC(=O)O)C(=O)N[C@@H](Cc1ccccc1)C(=O)N[C@H](C(=O)N[C@@H](CC(N)=O)C(=O)N[C@@H](Cc1c[nH]c2ccccc12)C(=O)N[C@@H](CC(C)C)C(=O)N[C@@H](CC(C)C)C(=O)N[C@@H](C)C(=O)NCC(=O)NCC(=O)N1CCC[C@H]1C(=O)N[C@@H](CO)C(=O)N[C@@H](CO)C(=O)NCC(=O)N[C@@H](C)C(=O)N1CCC[C@H]1C(=O)N1CCC[C@H]1C(=O)N1CCC[C@H]1C(=O)N[C@@H](CO)C(=O)N[C@@H](CCCCN)C(N)=O)C(C)C [Compound 169] | – | – | – | – | – | > 1000 | – | – | 1 to 10 | > 1000 | – | – | EC50 (GLP-1R): 1 to 10 nM; Emax (GLP-1R): 96%; Emax at 1 µM (GIP-R; read-out: (Emax) GIP-R at 1 μM): 6 to 8%
4 | CC[C@H](C)[C@H](NC(=O)[C@H](CO)NC(=O)[C@H](Cc1ccc(O)cc1)NC(=O)[C@H](CC(=O)O)NC(=O)[C@H](CO)NC(=O)[C@@H](NC(=O)[C@H](Cc1ccccc1)NC(=O)[C@@H](NC(=O)CNC(=O)[C@H](CCC(=O)O)NC(=O)CCCCCCCCN1C(=O)CSC1=O)[C@@H](C)O)[C@@H](C)O)C(=O)N[C@@H](Cc1ccc(O)cc1)C(=O)N[C@@H](CC(C)C)C(=O)N[C@@H](CC(=O)O)C(=O)N[C@@H](CCCCN)C(=O)N[C@@H](CCC(N)=O)C(=O)N[C@@H](C)C(=O)N[C@@H](C)C(=O)NC(C)(C)C(=O)N[C@@H](CCC(=O)O)C(=O)N[C@@H](Cc1ccccc1)C(=O)N[C@H](C(=O)N[C@@H](CC(N)=O)C(=O)N[C@@H](Cc1c[nH]c2ccccc12)C(=O)N[C@@H](CC(C)C)C(=O)N[C@@H](CC(C)C)C(=O)N[C@@H](C)C(=O)NCC(=O)NCC(=O)N1CCC[C@H]1C(=O)N[C@@H](CO)C(=O)N[C@@H](CO)C(=O)NCC(=O)N[C@@H](C)C(=O)N1CCC[C@H]1C(=O)N1CCC[C@H]1C(=O)N1CCC[C@H]1C(=O)N[C@@H](CO)C(=O)N[C@@H](CCCCN)C(N)=O)C(C)C [Compound 174] | – | – | 17 to 73 | 17 to 73 | 30 to 66 | – | – | – | 10 to 1000 | 100 to 1000 | 100 to 1000 | 30 to 66 | EC50 (GLP-1R; read-out: EC50 GLP-1R/nM, Table 3, cAMP): 10 to 1000 nM
5 | CC[C@H](C)[C@H](NC(=O)[C@H](CO)NC(=O)[C@H](Cc1ccc(O)cc1)NC(=O)[C@H](CC(=O)O)NC(=O)[C@H](CO)NC(=O)[C@@H](NC(=O)[C@H](Cc1ccccc1)NC(=O)[C@@H](NC(=O)CNC(=O)[C@H](CCC(=O)O)NC(=O)CCCCCCCN1C(=O)CSC1=O)[C@@H](C)O)[C@@H](C)O)C(=O)N[C@@H](Cc1ccc(O)cc1)C(=O)N[C@@H](CC(C)C)C(=O)N[C@@H](CC(=O)O)C(=O)N[C@@H](CCCCN)C(=O)N[C@@H](CCC(N)=O)C(=O)N[C@@H](C)C(=O)N[C@@H](C)C(=O)NC(C)(C)C(=O)N[C@@H](CCC(=O)O)C(=O)N[C@@H](Cc1ccccc1)C(=O)N[C@H](C(=O)N[C@@H](CC(N)=O)C(=O)N[C@@H](Cc1c[nH]c2ccccc12)C(=O)N[C@@H](CC(C)C)C(=O)N[C@@H](CC(C)C)C(=O)N[C@@H](C)C(=O)NCC(=O)NCC(=O)N1CCC[C@H]1C(=O)N[C@@H](CO)C(=O)N[C@@H](CO)C(=O)NCC(=O)N[C@@H](C)C(=O)N1CCC[C@H]1C(=O)N1CCC[C@H]1C(=O)N1CCC[C@H]1C(=O)N[C@@H](CO)C(=O)N[C@@H](CCCCN)C(N)=O)C(C)C [Compound 175] | 10 to 100 | 10 to 100 | 87 to 94 | 87 to 94 | 38 | – | – | – | – | 10 to 100 | 10 to 100 | 38 | –
6 | CCCCCCCCCCCCCCCC(=O)N[C@@H](CCC(=O)NCCCC[C@H](NC(=O)[C@@H](NC(=O)[C@H](Cc1ccccc1)NC(=O)[C@H](CCC(=O)O)NC(=O)C(C)(C)NC(=O)[C@H](C)NC(=O)[C@H](C)NC(=O)[C@H](CCC(N)=O)NC(=O)[C@H](CCCCN)NC(=O)[C@H](CC(=O)O)NC(=O)[C@H](CC(C)C)NC(=O)[C@H](Cc1ccc(O)cc1)NC(=O)[C@@H](NC(=O)[C@H](CO)NC(=O)[C@H](Cc1ccc(O)cc1)NC(=O)[C@H](CC(=O)O)NC(=O)[C@H](CO)NC(=O)[C@@H](NC(=O)[C@H](Cc1ccccc1)NC(=O)[C@@H](NC(=O)CNC(=O)[C@H](CCC(=O)O)NC(=O)CSCC(=O)NCCN1C(=O)CSC1=O)[C@@H](C)O)[C@@H](C)O)[C@@H](C)CC)C(C)C)C(=O)N[C@@H](Cc1c[nH]c2ccccc12)C(=O)N[C@@H](CC(C)C)C(=O)N[C@@H](CC(C)C)C(=O)N[C@@H](C)C(=O)NCC(=O)NCC(=O)N1CCC[C@H]1C(=O)N[C@@H](CO)C(=O)N[C@@H](CO)C(=O)NCC(=O)N[C@@H](C)C(=O)N1CCC[C@H]1C(=O)N1CCC[C@H]1C(=O)N1CCC[C@H]1C(=O)N[C@@H](CO)C(=O)N[C@@H](CCCCN)C(N)=O)C(=O)O [Compound 197] (X2-EGTFTSDYSIYLDKQAA[Aib]EFVK([γGlu-Palmitoyl])WLLAGGPSSGAPPPSK-NH2) | – | – | – | 95 | 20 | – | 10 to 100 | 100 to 1000 | – | – | – | – | –

From patent US20260176320A1, “MODULATORS OF G-PROTEIN COUPLED RECEPTORS” (priority 2018, published 2026)
